# From the supplement of paper PMC10307832
# Key:
# Experiment in all cases: relative viability (nuclei count vs DMSO), 5 days (fraction); higher = more cells survive
# HARA = test system: HARA
# Method in brief: (§1)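 Each reported value is a median over duplicate plates. It expresses relative viability: treated-well nuclei count divided by vehicle-well nuclei count. Lung cancer cell lines in 1536-well plates were dosed by pin tool a day after seeding, alone with one drug or with a fixed anchor-drug dose plus five library-drug doses (not always all listed) in √10 steps, and nuclei were counted after 5 days.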
# NCI-H2087 = test system: NCI-H2087
# Method in brief: as §1
# NCI-H522 = test system: NCI-H522
# Method in brief: as §1
# NCI-H2126 = test system: NCI-H2126
# Method in brief: as §1
# NCI-H647 = test system: NCI-H647
# Method in brief: as §1
# EMC-BAC-2 = test system: EMC-BAC-2
# Method in brief: as §1
# LOU-NH91 = test system: LOU-NH91
# Method in brief: as §1
# NCI-H2009 = test system: NCI-H2009
# Method in brief: as §1
# NCI-H2347 = test system: NCI-H2347
# Method in brief: as §1
# LCLC-103H = test system: LCLC-103H
# Method in brief: as §1
# NCI-H727 = test system: NCI-H727
# Method in brief: as §1
# 201T = test system: 201T
# Method in brief: as §1
# NCI-H596 = test system: NCI-H596
# Method in brief: as §1
# NCI-H1395 = test system: NCI-H1395
# Method in brief: as §1
# NCI-H1993 = test system: NCI-H1993
# Method in brief: as §1
# NCI-H3122 = test system: NCI-H3122
# Method in brief: as §1
# NCI-H1666 = test system: NCI-H1666
# Method in brief: as §1
# HCC-44 = test system: HCC-44
# Method in brief: as §1
# BEN = test system: BEN
# Method in brief: as §1
# NCI-H441 = test system: NCI-H441
# Method in brief: as §1
# NCI-H838 = test system: NCI-H838
# Method in brief: as §1
# NCI-H23 = test system: NCI-H23
# Method in brief: as §1
# NCI-H650 = test system: NCI-H650
# Method in brief: as §1
# NCI-H2023 = test system: NCI-H2023
# Method in brief: as §1
smiles,measurement,setting,value
C[C@@H]1CN(CC(=O)Nc2ccc3c(c2)Cc2cccc(-c4cc(=O)cc(N5CCOCC5)o4)c2S3)C[C@H](C)O1 + COc1cccc2cc(-c3nc([C@H]4CC[C@H](C(=O)O)CC4)n4ncnc(N)c34)[nH]c12 [OSI-027] (partner 0.5 µM),relative viability,HARA; first compound 0.1265 µM,0.499
same,relative viability,HARA; first compound 0.4 µM,0.251
same,relative viability,HARA; first compound 4 µM,0.412
same,relative viability,NCI-H2087; first compound 0.04 µM,0.847
same,relative viability,NCI-H2087; first compound 0.1265 µM,0.521
same,relative viability,NCI-H2087; first compound 0.4 µM,0.463
same,relative viability,NCI-H2087; first compound 4 µM,0.457
same,relative viability,NCI-H522; first compound 0.04 µM,0.706
same,relative viability,NCI-H522; first compound 0.1265 µM,0.679
same,relative viability,NCI-H522; first compound 0.4 µM,0.742
same,relative viability,NCI-H522; first compound 4 µM,0.735
same,relative viability,NCI-H2126; first compound 0.04 µM,0.708
same,relative viability,NCI-H2126; first compound 0.1265 µM,0.579
same,relative viability,NCI-H2126; first compound 0.4 µM,0.677
same,relative viability,NCI-H2126; first compound 4 µM,0.647
same,relative viability,NCI-H647; first compound 0.04 µM,0.519
same,relative viability,NCI-H647; first compound 0.1265 µM,0.669
same,relative viability,NCI-H647; first compound 0.4 µM,0.497
same,relative viability,NCI-H647; first compound 4 µM,0.558
same,relative viability,EMC-BAC-2; first compound 0.04 µM,0.392
same,relative viability,EMC-BAC-2; first compound 0.1265 µM,0.429
same,relative viability,EMC-BAC-2; first compound 0.4 µM,0.385
same,relative viability,EMC-BAC-2; first compound 4 µM,0.39
same,relative viability,LOU-NH91; first compound 0.04 µM,0.746
same,relative viability,LOU-NH91; first compound 0.1265 µM,0.711
same,relative viability,LOU-NH91; first compound 0.4 µM,0.724
same,relative viability,LOU-NH91; first compound 4 µM,0.7
same,relative viability,NCI-H2009; first compound 0.04 µM,0.712
same,relative viability,NCI-H2009; first compound 0.1265 µM,0.648
same,relative viability,NCI-H2009; first compound 0.4 µM,0.613
same,relative viability,NCI-H2009; first compound 4 µM,0.448
same,relative viability,NCI-H2347; first compound 0.04 µM,0.465
same,relative viability,NCI-H2347; first compound 0.1265 µM,0.417
same,relative viability,NCI-H2347; first compound 0.4 µM,0.415
same,relative viability,NCI-H2347; first compound 4 µM,0.4
same,relative viability,LCLC-103H; first compound 0.04 µM,0.405
same,relative viability,LCLC-103H; first compound 0.1265 µM,0.379
same,relative viability,LCLC-103H; first compound 0.4 µM,0.387
same,relative viability,LCLC-103H; first compound 4 µM,0.476
same,relative viability,NCI-H727; first compound 0.04 µM,0.546
same,relative viability,NCI-H727; first compound 0.1265 µM,0.485
same,relative viability,NCI-H727; first compound 0.4 µM,0.537
same,relative viability,NCI-H727; first compound 4 µM,0.656
same,relative viability,201T; first compound 0.04 µM,0.784
same,relative viability,201T; first compound 0.1265 µM,0.68
same,relative viability,201T; first compound 0.4 µM,0.683
same,relative viability,201T; first compound 4 µM,0.757
same,relative viability,NCI-H596; first compound 0.04 µM,0.899
same,relative viability,NCI-H596; first compound 0.1265 µM,0.931
same,relative viability,NCI-H596; first compound 0.4 µM,0.537
same,relative viability,NCI-H596; first compound 4 µM,0.549
same,relative viability,NCI-H1395; first compound 0.04 µM,0.782
same,relative viability,NCI-H1395; first compound 0.1265 µM,0.655
same,relative viability,NCI-H1395; first compound 0.4 µM,0.539
same,relative viability,NCI-H1395; first compound 4 µM,0.612
same,relative viability,NCI-H1993; first compound 0.04 µM,0.578
same,relative viability,NCI-H1993; first compound 0.1265 µM,0.603
same,relative viability,NCI-H1993; first compound 0.4 µM,0.597
same,relative viability,NCI-H1993; first compound 4 µM,0.551
same,relative viability,NCI-H3122; first compound 0.04 µM,0.994
same,relative viability,NCI-H3122; first compound 0.1265 µM,0.901
same,relative viability,NCI-H3122; first compound 0.4 µM,0.206
same,relative viability,NCI-H3122; first compound 4 µM,0.668
same,relative viability,NCI-H1666; first compound 0.04 µM,0.932
same,relative viability,NCI-H1666; first compound 0.1265 µM,0.87
same,relative viability,NCI-H1666; first compound 0.4 µM,0.978
same,relative viability,NCI-H1666; first compound 4 µM,0.838
same,relative viability,HCC-44; first compound 0.04 µM,0.328
same,relative viability,HCC-44; first compound 0.1265 µM,0.707
same,relative viability,HCC-44; first compound 0.4 µM,0.335
same,relative viability,HCC-44; first compound 4 µM,0.305
same,relative viability,BEN; first compound 0.04 µM,0.288
same,relative viability,BEN; first compound 0.1265 µM,0.28
same,relative viability,BEN; first compound 0.4 µM,0.305
same,relative viability,BEN; first compound 4 µM,0.296
same,relative viability,NCI-H441; first compound 0.04 µM,0.74
same,relative viability,NCI-H441; first compound 0.1265 µM,0.791
same,relative viability,NCI-H441; first compound 0.4 µM,0.398
same,relative viability,NCI-H441; first compound 4 µM,0.438
same,relative viability,NCI-H838; first compound 0.04 µM,0.401
same,relative viability,NCI-H838; first compound 0.1265 µM,0.377
same,relative viability,NCI-H838; first compound 0.4 µM,0.312
same,relative viability,NCI-H838; first compound 4 µM,0.288
same,relative viability,NCI-H23; first compound 0.04 µM,0.732
same,relative viability,NCI-H23; first compound 0.1265 µM,0.572
same,relative viability,NCI-H23; first compound 0.4 µM,0.558
same,relative viability,NCI-H23; first compound 4 µM,0.426
same,relative viability,NCI-H650; first compound 0.04 µM,0.491
same,relative viability,NCI-H650; first compound 0.1265 µM,0.443
same,relative viability,NCI-H650; first compound 0.4 µM,0.51
same,relative viability,NCI-H650; first compound 4 µM,0.36
same,relative viability,NCI-H2023; first compound 0.04 µM,0.518
same,relative viability,NCI-H2023; first compound 0.1265 µM,0.387
same,relative viability,NCI-H2023; first compound 0.4 µM,0.306
same,relative viability,NCI-H2023; first compound 4 µM,0.197
CC(C)Oc1cc(Nc2nc(N[C@@H](C)c3ccc(F)cn3)ncc2Cl)n[nH]1 [AZ23] + O=C(c1cc(Cc2n[nH]c(=O)c3ccccc23)ccc1F)N1CCN(C(=O)C2CC2)CC1 [Olaparib] (partner 8 µM),relative viability,HARA; first compound 0.01 µM,0.292
same,relative viability,HARA; first compound 0.03162 µM,0.575
same,relative viability,HARA; first compound 0.3162 µM,0.969
same,relative viability,NCI-H2087; first compound 0.01 µM,0.819
same,relative viability,NCI-H2087; first compound 0.03162 µM,0.73
same,relative viability,NCI-H2087; first compound 0.3162 µM,0.642
same,relative viability,NCI-H522; first compound 0.01 µM,0.667
same,relative viability,NCI-H522; first compound 0.03162 µM,0.598
same,relative viability,NCI-H522; first compound 0.3162 µM,0.641
same,relative viability,NCI-H2126; first compound 0.01 µM,0.996
same,relative viability,NCI-H2126; first compound 0.03162 µM,0.924
same,relative viability,NCI-H2126; first compound 0.3162 µM,0.888
same,relative viability,NCI-H647; first compound 0.01 µM,0.68
same,relative viability,NCI-H647; first compound 0.03162 µM,0.687
same,relative viability,NCI-H647; first compound 0.3162 µM,0.812
same,relative viability,EMC-BAC-2; first compound 0.01 µM,0.545
same,relative viability,EMC-BAC-2; first compound 0.03162 µM,0.514
same,relative viability,EMC-BAC-2; first compound 0.3162 µM,0.503
same,relative viability,LOU-NH91; first compound 0.01 µM,0.958
same,relative viability,LOU-NH91; first compound 0.03162 µM,0.961
same,relative viability,LOU-NH91; first compound 0.3162 µM,0.94
same,relative viability,NCI-H2009; first compound 0.01 µM,0.814
same,relative viability,NCI-H2009; first compound 0.03162 µM,0.769
same,relative viability,NCI-H2009; first compound 0.3162 µM,0.79
same,relative viability,NCI-H2347; first compound 0.01 µM,0.579
same,relative viability,NCI-H2347; first compound 0.03162 µM,0.622
same,relative viability,NCI-H2347; first compound 0.3162 µM,0.604
same,relative viability,LCLC-103H; first compound 0.01 µM,0.981
same,relative viability,LCLC-103H; first compound 0.03162 µM,0.86
same,relative viability,LCLC-103H; first compound 0.3162 µM,0.864
same,relative viability,NCI-H727; first compound 0.01 µM,0.751
same,relative viability,NCI-H727; first compound 0.03162 µM,0.678
same,relative viability,NCI-H727; first compound 0.3162 µM,0.689
same,relative viability,201T; first compound 0.01 µM,0.899
same,relative viability,201T; first compound 0.03162 µM,0.872
same,relative viability,201T; first compound 0.3162 µM,0.85
same,relative viability,NCI-H596; first compound 0.01 µM,0.603
same,relative viability,NCI-H596; first compound 0.03162 µM,0.749
same,relative viability,NCI-H596; first compound 0.3162 µM,0.665
same,relative viability,NCI-H1395; first compound 0.03162 µM,0.424
same,relative viability,NCI-H1395; first compound 0.3162 µM,0.452
same,relative viability,NCI-H1993; first compound 0.01 µM,1.08
same,relative viability,NCI-H1993; first compound 0.03162 µM,1.07
same,relative viability,NCI-H1993; first compound 0.3162 µM,1.01
same,relative viability,NCI-H3122; first compound 0.01 µM,0.627
same,relative viability,NCI-H3122; first compound 0.03162 µM,0.715
same,relative viability,NCI-H3122; first compound 0.3162 µM,0.684
same,relative viability,NCI-H1666; first compound 0.01 µM,0.718
same,relative viability,NCI-H1666; first compound 0.03162 µM,0.699
same,relative viability,NCI-H1666; first compound 0.3162 µM,0.759
same,relative viability,HCC-44; first compound 0.01 µM,1.04
same,relative viability,HCC-44; first compound 0.03162 µM,1.04
same,relative viability,HCC-44; first compound 0.3162 µM,0.979
same,relative viability,BEN; first compound 0.01 µM,1.03
same,relative viability,BEN; first compound 0.03162 µM,1.24
same,relative viability,BEN; first compound 0.3162 µM,1.16
same,relative viability,NCI-H441; first compound 0.01 µM,0.645
same,relative viability,NCI-H441; first compound 0.03162 µM,0.69
same,relative viability,NCI-H441; first compound 0.3162 µM,0.494
same,relative viability,NCI-H838; first compound 0.01 µM,0.905
same,relative viability,NCI-H838; first compound 0.03162 µM,0.964
same,relative viability,NCI-H838; first compound 0.3162 µM,0.721
same,relative viability,NCI-H23; first compound 0.03162 µM,0.263
same,relative viability,NCI-H23; first compound 0.3162 µM,0.394
same,relative viability,NCI-H650; first compound 0.01 µM,0.483
same,relative viability,NCI-H650; first compound 0.03162 µM,0.454
same,relative viability,NCI-H650; first compound 0.3162 µM,0.357
same,relative viability,NCI-H2023; first compound 0.03162 µM,0.572
same,relative viability,NCI-H2023; first compound 0.3162 µM,0.573
